Columns and labels:
patients with MDD = test: Five Phase II studies of vilazodone, eight weeks of treatment; assay type: in vivo, human
Source text: As part of the vilazodone development program, five Phase II studies have been conducted, all in patients with MDD. These studies randomized 2,098 patients for eight weeks of treatment, 1196 of whom received vilazodone.

beagle dogs = test: Pre-clinical study in beagle dogs; assay type: in vivo, dog

## Cl.N#Cc1ccc2[nH]cc(CCCCN3CCN(c4ccc5oc(C(N)=O)cc5c4)CC3)c2c1 [Vilazodone, 5-{4-[4-(5-Cyano-3-indolyl)-butyl]-1-piperazinyl}-benzofuran-2-carboxamide hydrochloride]
Patients with MDD; Phase II studies
  overall safety: generally shown to be safe
Patients with MDD; Phase II, subjects treated with vilazodone
  clinically significant finding from ophthalmologic examinations: increase in the incidence of mild ocular drying
Patients with MDD; each of the Phase II studies
  primary efficacy variable compared to placebo: did not show a statistically significant difference
Patients with MDD; exploratory analyses of Phase II studies
  response stratified by baseline disease severity: a larger treatment effect is observed for more severely depressed patients
Patients with MDD; reported by at least ten percent of vilazodone-treated patients, Phase II, MDD
  most common adverse events: nausea, diarrhea, headache, insomnia, dizziness, dry mouth, somnolence, abnormal dreams, and vomiting
Beagle dogs
  ocular findings: treatment emergent corneal opacities and reduced tear production
